{"source": "patent US7855165B2", "about": "“Herbicide composition for paddy field” (Bayer Cropscience AG, priority 2007, dated 2010)", "key": {"[1]": {"test_system": "paddy rice", "assay": "Test Example 2: test of effect of phytotoxicity reduction", "format": "in vivo", "details": "2 weeks after treatment", "from_the_text": "(§1) • Component (a) (a-1): compound No. 1 (ref: the aforementioned Table A) • (a-2): compound No. 3 (same as above) • (a-3): compound No. 11 (same as above) • Component (b) the aforementioned (b-1)-(b-15) • Component (c) the aforementioned (c-1)-(c-3) <Preparation of Test Agents> • Carrier: Acetone 5 parts by weight • Surfactant: Benzyloxy polyglycol ether 1 part by weight The above-mentioned carrier and surfactant and 1 part by weight of active compounds (component (a) and component (b) or component (c)) are mixed and the obtained formulations are diluted with water to prepare the test agents of the prescribed chemicals amount (preparations).\nIn a green house, paddy rice of 2-2.5 leafstage was transplanted to paddy field soil filled in a 1000 cm^2 pot to 2 cm depth and brought to a submerged condition of about 2-3 cm. Five days after the transplantation, prescribed diluted solution of preparation of each active compound and each herbicide in the following table was applied on water surface each singly or simultaneously. After the treatment, the submerged condition of 3 cm was maintained and the grade of phytotoxicity to paddy rice was studied 2 weeks after the treatment. The phytotoxicity was evaluated as 100% in case of complete death and 0% in case of no phytotoxicity."}, "[2]": {"test_system": "Cyperus serotinus Rottboel", "assay": "Test Example 1: effect of the herbicide composition against paddy field weeds (pot test, green house)", "format": "in vivo", "from_the_text": "as §1\n(§2) In a green house, seeds or tubers of Monochoria vaginalis Presl, annual broad-leaves (Lindernia procumbens Philcox, Rotala indica Koehne, Elatine triandra Schk, Ammannia multiflora Roxb., etc.), Cyperus serotinus Rottboel, and Sagittaria pygmaea Miq were inoculated to paddy field soil filled in a 500 cm^2 pot and brought to a submerged condition of about 2-3 cm. At 1.5-2 leafstage of each weed prescribed diluted solution of preparation of each active compound and each herbicide in the following table was applied on water surface each singly or simultaneously. After the treatment, the submerged condition of 3 cm was maintained and the herbicidal effect was studied 3 weeks after the treatment. The herbicidal effect was evaluated as 100% in case of complete death and 0% in case of no effect.\n(§3) In the tables, MOOVP represents Monochoria vaginalis Presl, BBBBB represents annual broad-leaves, CYPSE represents Cyperus serotinus Rottboel and SAGPY represents Sagittaria pygmaea Miq."}, "[3]": {"test_system": "Monochoria vaginalis Presl", "assay": "Test Example 1: effect of the herbicide composition against paddy field weeds (pot test, green house)", "format": "in vivo", "from_the_text": "as §1, §2, §3"}, "[4]": {"test_system": "Sagittaria pygmaea Miq", "assay": "Test Example 1: effect of the herbicide composition against paddy field weeds (pot test, green house)", "format": "in vivo", "from_the_text": "as §1, §2, §3"}, "[5]": {"assay": "Test Example 1: effect of the herbicide composition against paddy field weeds (pot test, green house)", "format": "in vivo, annual broad-leaves", "details": "504 h, read-out: Herbicidal effect (%) BBBBB", "from_the_text": "as §2, with “At 1.5-2 leafstage of each weed prescribed diluted solution of preparation of each active compound and each herbicide in the following table was applied on water surface each singly or simultaneously.” left out\nas §3"}, "[6]": {"test_system": "annual broad-leaves (Lindernia procumbens Philcox, Rotala indica Koehne, Elatine triandra Schk, Ammannia multiflora Roxb., etc.)", "assay": "Test Example 1: effect of the herbicide composition against paddy field weeds (pot test, green house)", "format": "in vivo", "details": "3 weeks after treatment", "from_the_text": "as §2, with “At 1.5-2 leafstage of each weed prescribed diluted solution of preparation of each active compound and each herbicide in the following table was applied on water surface each singly or simultaneously.” left out\nas §3"}, "[7]": {"details": "Cyperus serotinus, 504 h, read-out: Herbicidal effect (%) CYPSE"}, "[8]": {"details": "Pontederia vaginalis, 504 h, read-out: Herbicidal effect (%) MOOVP"}, "[9]": {"details": "Sagittaria pygmaea, 504 h, read-out: Herbicidal effect (%) SAGPY"}, "[10]": {"details": "50 g/ha single, 3 weeks after treatment"}, "[11]": {"details": "100 g/ha single, 3 weeks after treatment"}}, "note": "Where two headings read alike, the source gives them in different places.", "data": [{"molecule": "O=C(O)C1=NOC(c2ccccc2)(c2ccccc2)C1", "note": "[(c-3), isoxadifen]", "values": [{"measurement": "Phytotoxicity %", "setting": "[1]; 500 g/ha single", "value": 0, "unit": "%"}]}, {"molecule": "Cc1ccc(NC(=O)NC(C)(C)c2ccccc2)cc1", "note": "[(c-1), dymron]", "values": [{"measurement": "Phytotoxicity %", "setting": "[1]; 450 g/ha single", "value": 0, "unit": "%"}]}, {"molecule": "CCOC(=O)C1=NN(c2ccc(Cl)cc2Cl)C(C)(C(=O)OCC)C1", "note": "(centres unmarked) [(c-2), mefenpyr-diethyl]", "values": [{"measurement": "Phytotoxicity %", "setting": "[1]; 500 g/ha single", "value": 0, "unit": "%"}]}, {"molecule": "CCS(=O)(=O)Oc1ccc2c(c1)C(C)(C)CO2", "note": "[(b-11), benfuresate]", "values": [{"measurement": "pest or weed control at 125 g/ha", "setting": "[2]; [7]", "value": 20, "unit": "%"}, {"measurement": "pest or weed control at 250 g/ha", "setting": "[2]; [7]", "value": 70, "unit": "%"}, {"measurement": "pest or weed control at 125 g/ha", "setting": "[3]; [8]", "value": 0, "unit": "%"}, {"measurement": "pest or weed control at 250 g/ha", "setting": "[3]; [8]", "value": 0, "unit": "%"}, {"measurement": "pest or weed control at 125 g/ha", "setting": "[4]; [9]", "value": 10, "unit": "%"}, {"measurement": "pest or weed control at 250 g/ha", "setting": "[4]; [9]", "value": 20, "unit": "%"}, {"measurement": "pest or weed control at 125 g/ha", "setting": "[5]", "value": 0, "unit": "%"}, {"measurement": "pest or weed control at 250 g/ha", "setting": "[5]", "value": 0, "unit": "%"}]}, {"molecule": "COC(=O)c1ccccc1CS(=O)(=O)NC(=O)Nc1nc(OC)cc(OC)n1", "note": "[(b-12), bensulfuron-methyl]", "values": [{"measurement": "pest or weed control at 2.5 g/ha", "setting": "[2]; Cyperus serotinus, 504 h, 2.5 g/ha single, 3 weeks after treatment, read-out: Herbicidal effect (%) CYPSE", "value": 40, "unit": "%"}, {"measurement": "pest or weed control at 5 g/ha", "setting": "[2]; Cyperus serotinus, 504 h, 5 g/ha single, 3 weeks after treatment, read-out: Herbicidal effect (%) CYPSE", "value": 40, "unit": "%"}, {"measurement": "pest or weed control at 2.5 g/ha", "setting": "[3]; Pontederia vaginalis, 504 h, 2.5 g/ha single, 3 weeks after treatment, read-out: Herbicidal effect (%) MOOVP", "value": 30, "unit": "%"}, {"measurement": "pest or weed control at 5 g/ha", "setting": "[3]; Pontederia vaginalis, 504 h, 5 g/ha single, 3 weeks after treatment, read-out: Herbicidal effect (%) MOOVP", "value": 60, "unit": "%"}, {"measurement": "pest or weed control at 2.5 g/ha", "setting": "[4]; Sagittaria pygmaea, 504 h, 2.5 g/ha single, 3 weeks after treatment, read-out: Herbicidal effect (%) SAGPY", "value": 50, "unit": "%"}, {"measurement": "pest or weed control at 5 g/ha", "setting": "[4]; Sagittaria pygmaea, 504 h, 5 g/ha single, 3 weeks after treatment, read-out: Herbicidal effect (%) SAGPY", "value": 50, "unit": "%"}, {"measurement": "pest or weed control at 2.5 g/ha", "setting": "[5]; 2.5 g/ha single, 3 weeks after treatment", "value": 50, "unit": "%"}, {"measurement": "pest or weed control at 5 g/ha", "setting": "[5]; 5 g/ha single, 3 weeks after treatment", "value": 60, "unit": "%"}]}, {"molecule": "CCCOCCN(C(=O)CCl)c1c(CC)cccc1CC", "note": "[(b-2), pretilachlor]", "values": [{"measurement": "pest or weed control at 125 g/ha", "setting": "[2]; Cyperus serotinus, 504 h, 125 g/ha single, 3 weeks after treatment, read-out: Herbicidal effect (%) CYPSE", "value": 0, "unit": "%"}, {"measurement": "pest or weed control at 250 g/ha", "setting": "[2]; Cyperus serotinus, 504 h, 250 g/ha single, 3 weeks after treatment, read-out: Herbicidal effect (%) CYPSE", "value": 0, "unit": "%"}, {"measurement": "pest or weed control at 125 g/ha", "setting": "[3]; Pontederia vaginalis, 504 h, 125 g/ha single, 3 weeks after treatment, read-out: Herbicidal effect (%) MOOVP", "value": 10, "unit": "%"}, {"measurement": "pest or weed control at 250 g/ha", "setting": "[3]; Pontederia vaginalis, 504 h, 250 g/ha single, 3 weeks after treatment, read-out: Herbicidal effect (%) MOOVP", "value": 20, "unit": "%"}, {"measurement": "pest or weed control at 125 g/ha", "setting": "[4]; Sagittaria pygmaea, 504 h, 125 g/ha single, 3 weeks after treatment, read-out: Herbicidal effect (%) SAGPY", "value": 0, "unit": "%"}, {"measurement": "pest or weed control at 250 g/ha", "setting": "[4]; Sagittaria pygmaea, 504 h, 250 g/ha single, 3 weeks after treatment, read-out: Herbicidal effect (%) SAGPY", "value": 10, "unit": "%"}, {"measurement": "pest or weed control at 125 g/ha", "setting": "[5]; 125 g/ha single, 3 weeks after treatment", "value": 10, "unit": "%"}, {"measurement": "pest or weed control at 250 g/ha", "setting": "[5]; 250 g/ha single, 3 weeks after treatment", "value": 10, "unit": "%"}]}, {"molecule": "C#CCN(C)c1c(C#N)cnn1-c1nn2c(c1Cl)CCCC2", "note": "[(b-6), pyraclonil]", "values": [{"measurement": "Herbicidal effect (%) CYPSE", "setting": "[2]; [10]", "value": 20, "unit": "%"}, {"measurement": "Herbicidal effect (%) CYPSE", "setting": "[2]; [11]", "value": 30, "unit": "%"}, {"measurement": "Herbicidal effect (%) MOOVP", "setting": "[3]; [10]", "value": 80, "unit": "%"}, {"measurement": "Herbicidal effect (%) MOOVP", "setting": "[3]; [11]", "value": 90, "unit": "%"}, {"measurement": "Herbicidal effect (%) SAGPY", "setting": "[4]; [10]", "value": 50, "unit": "%"}, {"measurement": "Herbicidal effect (%) SAGPY", "setting": "[4]; [11]", "value": 85, "unit": "%"}, {"measurement": "Herbicidal effect (%) BBBBB", "setting": "[6]; 50 g/ha single", "value": 90, "unit": "%"}, {"measurement": "Herbicidal effect (%) BBBBB", "setting": "[6]; 100 g/ha single", "value": 90, "unit": "%"}]}]}
